Patent US10800792B2, “Inhibitors of Bruton's tyrosine kinase and method of their use” (JANSSEN PHARMACEUTICA NV, priority 2015, dated 2020)

Molecular target: unphosphorylated-BTK kinase domain (UP-BTK), GST-tagged human BTK (389-659aa) (Homo sapiens (Human), UniProt Q06187)
Assay: BTK kinase Lanthascreen binding assay
Details: Lanthascreen tracer competition, 60 minutes incubation, pIC50 = negative log of the IC50 in molar; for IC50: read-out: BTK_I_binding pIC50 (converted)
In short: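 Measures how well compounds compete with a fluorescence-labelled tracer for binding to BTK in its unphosphorylated state. IC50 values were fitted and expressed as pIC50 (negative logarithm of the molar IC50).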

Chain of unphosphorylated-BTK kinase domain (UP-BTK), GST-tagged human BTK (389-659aa) (Q06187 389-659): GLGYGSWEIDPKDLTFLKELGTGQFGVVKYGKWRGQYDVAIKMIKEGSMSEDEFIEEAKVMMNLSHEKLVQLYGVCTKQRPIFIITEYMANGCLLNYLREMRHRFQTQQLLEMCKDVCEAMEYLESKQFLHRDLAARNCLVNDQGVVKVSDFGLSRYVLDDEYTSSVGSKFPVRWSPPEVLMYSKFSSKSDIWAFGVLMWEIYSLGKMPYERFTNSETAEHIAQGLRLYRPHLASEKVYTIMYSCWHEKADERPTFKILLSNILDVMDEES

Row | BTK_I_binding pIC50 | SMILES | IC50 [µM]
1 |  | Cc1cc(OC2CCC2)ccc1N1C(=O)Nc2c(C(=O)N[C@@H]3CCCNC3)sc3nccc1c23 [Example 605, (R)-5-(4-cyclobutoxy-2-methylphenyl)-4-oxo-N-(piperidin-3-yl)-4,5-dihydro-3H-1-thia-3,5,8-triazaacenaphthylene-2-carboxamide] | 0.501
2 | 6.2 | C=CC(=O)N1CCC(Nc2sc3nccc4c3c2NC(=O)N4c2ccc(Oc3ccccc3)cc2C)CC1 [Example 606, 2-((1-Acryloylpiperidin-4-yl)amino)-5-(2-methyl-4-phenoxyphenyl)-3H-1-thia-3,5,8-triazaacenaphthylen-4(5H)-one] | 
3 | 6.2 | C=CC(=O)N1CCC[C@@H](NC(=O)c2sc3nccc4c3c2NC(=O)N4c2ccc(C)c(C(F)(F)F)c2)C1 [Example 607, (R)—N-(1-Acryloylpiperidin-3-yl)-5-(4-methyl-3-(trifluoromethyl)phenyl)-4-oxo-4,5-dihydro-3H-1-thia-3,5,8-triazaacenaphthylene-2-carboxamide] | 
4 | 6.2 | Cc1cc(OC(C)C)ccc1N1C(=O)Nc2c(C(=O)N[C@@H]3CCCN(C(=O)/C=C/CN4C[C@@H]5OCCO[C@@H]5C4)C3)sc3nccc1c23 [Example 608, 5-(4-Isopropoxy-2-methylphenyl)-4-oxo-N—((R)-1-((E)-4-((4aR,7aS)-tetrahydro-2H-[1,4]dioxino[2,3-c]pyrrol-6(3H)-yl)but-2-enoyl)piperidin-3-yl)-4,5-dihydro-3H-1-thia-3,5,8-triazaacenaphthylene-2-carboxamide] | 
5 | 6.2 | O=C(N[C@@H]1CCCNC1)c1sc2nccc3c2c1NC(=O)N3c1cc(-c2ccccc2)ccn1 [Example 610, (R)-4-Oxo-5-(4-phenylpyridin-2-yl)-N-(piperidin-3-yl)-4,5-dihydro-3H-1-thia-3,5,8-triazaacenaphthylene-2-carboxamide] | 
6 | 6.1 | C=CC(=O)N1CCC[C@@H](NC(=O)c2sc3nccc4c3c2NC(=O)N4c2ccc(OC3COC3)cc2)C1 [Example 612, (R)—N-(1-Acryloylpiperidin-3-yl)-5-(4-(oxetan-3-yloxy)phenyl)-4-oxo-4,5-dihydro-3H-1-thia-3,5,8-triazaacenaphthylene-2-carboxamide] | 
7 |  | O=C(N[C@@H]1CCCNC1)c1sc2nccc3c2c1NC(=O)N3c1cccc(OC2CCCC2)c1 [Example 613, (R)-5-(3-(Cyclopentyloxy)phenyl)-4-oxo-N-(piperidin-3-yl)-4,5-dihydro-3H-1-thia-3,5,8-triazaacenaphthylene-2-carboxamide] | 0.794
8 | 6.1 | C=CC(=O)N1C[C@@H](O)[C@@H](NC(=O)c2sc3nccc4c3c2NC(=O)N4c2ccc(OC(C)C)cc2C)C1 [Example 614, N-((3S,4R)-1-Acryloyl-4-hydroxypyrrolidin-3-yl)-5-(4-isopropoxy-2-methylphenyl)-4-oxo-4,5-dihydro-3H-1-thia-3,5,8-triazaacenaphthylene-2-carboxamide] | 
9 | 6.1 | O=C(N[C@@H]1CCCNC1)c1sc2nccc3c2c1NC(=O)N3c1cccc(OC2CCCCC2)c1 [Example 616, (R)-5-(3-(Cyclohexyloxy)phenyl)-4-oxo-N-(piperidin-3-yl)-4,5-dihydro-3H-1-thia-3,5,8-triazaacenaphthylene-2-carboxamide] | 
10 | 6.0 | O=C(N[C@@H]1CCCNC1)c1sc2nccc3c2c1NC(=O)N3c1cncc(-c2ccccc2)c1 [Example 618, (R)-4-Oxo-5-(5-phenylpyridin-3-yl)-N-(piperidin-3-yl)-4,5-dihydro-3H-1-thia-3,5,8-triazaacenaphthylene-2-carboxamide] | 
11 | <6 | C=CC(=O)N1CCC[C@@H](NC(=O)c2sc3nccc4c3c2NC(=O)N4c2cnc(OC)nc2)C1 [Example 619, (R)—N-(1-Acryloylpiperidin-3-yl)-5-(2-methoxypyrimidin-5-yl)-4-oxo-4,5-dihydro-3H-1-thia-3,5,8-triazaacenaphthylene-2-carboxamide] | 
12 | <6 | O=C(N[C@@H]1CCCNC1)c1sc2nccc3c2c1NC(=O)N3c1cccc(OC(F)(F)F)c1 [Example 620, (R)-4-Oxo-N-(piperidin-3-yl)-5-(3-(trifluoromethoxy)phenyl)-4,5-dihydro-3H-1-thia-3,5,8-triazaacenaphthylene-2-carboxamide] | 
13 | <6 | O=C(N[C@@H]1CCCNC1)c1sc2nccc3c2c1NC(=O)N3c1cccc(-c2ccccn2)c1 [Example 622, (R)-4-Oxo-N-(piperidin-3-yl)-5-(3-(pyridin-2-yl)phenyl)-4,5-dihydro-3H-1-thia-3,5,8-triazaacenaphthylene-2-carboxamide] | 
14 | <6 | O=C(N[C@@H]1CCCNC1)c1sc2nccc3c2c1NC(=O)N3c1cccc(-c2ccccc2)n1 [Example 623, (R)-4-Oxo-5-(6-phenylpyridin-2-yl)-N-(piperidin-3-yl)-4,5-dihydro-3H-1-thia-3,5,8-triazaacenaphthylene-2-carboxamide] | 
15 | 5.9 | CC(C)(C)OC(=O)N1C[C@H](NC(=O)c2sc3nccc4c3c2NC(=O)N4c2ccc(Oc3ccccc3)cc2)[C@@H](F)C1 [Example 625, (3S,4S)-tert-Butyl 3-fluoro-4-(4-oxo-5-(4-phenoxyphenyl)-4,5-dihydro-3H-1-thia-3,5,8-triazaacenaphthylene-2-carboxamido)pyrrolidine-1-carboxylate] | 
16 |  | O=C(N[C@@H]1CCCNC1)c1sc2nccc3c2c1NC(=O)N3c1ccc(OC2CCC2)cc1 [Example 626, (R)-5-(4-Cyclobutoxyphenyl)-4-oxo-N-(piperidin-3-yl)-4,5-dihydro-3H-1-thia-3,5,8-triazaacenaphthylene-2-carboxamide] | 1.26
17 | 5.9 | CC(C)(C)OC(=O)N1CCC(NC(=O)c2sc3nccc4c3c2NC(=O)N4c2ccc(Oc3ccccc3)cc2)CC1 [Example 627, tert-Butyl 4-(4-oxo-5-(4-phenoxyphenyl)-4,5-dihydro-3H-1-thia-3,5,8-triazaacenaphthylene-2-carboxamido)piperidine-1-carboxylate] | 
18 | 5.8 | CC(C)(C)OC(=O)N1CCC[C@@H](NC(=O)c2sc3nccc4c3c2NC(=O)N4c2ccc(Oc3ccccc3)cc2)C1 [Example 628, (R)-tert-Butyl 3-(4-oxo-5-(4-phenoxyphenyl)-4,5-dihydro-3H-1-thia-3,5,8-triazaacenaphthylene-2-carboxamido)piperidine-1-carboxylate] | 
19 |  | O=C(N[C@@H]1CCCNC1)c1sc2nccc3c2c1NC(=O)N3c1cccc(C2CCCCC2)c1 [Example 629, (R)-5-(3-Cyclohexylphenyl)-4-oxo-N-(piperidin-3-yl)-4,5-dihydro-3H-1-thia-3,5,8-triazaacenaphthylene-2-carboxamide] | 1.26
20 | 5.9 | CC(C)c1cccc(N2C(=O)Nc3c(C(=O)N[C@@H]4CCCNC4)sc4nccc2c34)c1 [Example 630, (R)-5-(3-Isopropylphenyl)-4-oxo-N-(piperidin-3-yl)-4,5-dihydro-3H-1-thia-3,5,8-triazaacenaphthylene-2-carboxamide] | 
21 | 5.9 | C=CC(=O)N1CCC[C@@H](NC(=O)c2sc3nccc4c3c2NC(=O)N4c2cccc(-c3ccncc3)c2)C1 [Example 631, (R)—N-(1-Acryloylpiperidin-3-yl)-4-oxo-5-(3-(pyridin-4-yl)phenyl)-4,5-dihydro-3H-1-thia-3,58-triazaacenaphthylene-2-carboxamide] | 
22 | 5.9 | C=CC(=O)N1CCC[C@@H](NC(=O)c2sc3nccc4c3c2NC(=O)N4c2cccc(C3COC3)c2)C1 [Example 632, (R)—N-(1-Acryloylpiperidin-3-yl)-5-(3-(oxetan-3-yl)phenyl)-4-oxo-4,5-dihydro-3H-1-thia-3,5,8-triazaacenaphthylene-2-carboxamide] | 
23 | 5.8 | C=CC(=O)N1CCC[C@@H](NC(=O)c2sc3nccc4c3c2NC(=O)N4c2ccc(OC(C)C)c(C)c2)C1 [Example 633, (R)—N-(1-Acryloylpiperidin-3-yl)-5-(4-isopropoxy-3-methylphenyl)-4-oxo-4,5-dihydro-3H-1-thia-3,5,8-triazaacenaphthylene-2-carboxamide] | 
24 | 5.8 | O=C(N[C@@H]1CCCNC1)c1sc2nccc3c2c1NC(=O)N3c1ccnc(C2CCC2)c1 [Example 634, (R)-5-(2-Cyclobutylpyridin-4-yl)-4-oxo-N-(piperidin-3-yl)-4,5-dihydro-3H-1-thia-3,5,8-triazaacenaphthylene-2-carboxamide] | 
25 | 5.8 | C=CC(=O)N1CCC[C@@H](NC(=O)c2sc3nccc4c3c2NC(=O)N4c2cccc(Oc3ccccc3)n2)C1 [Example 635, (R)—N-(1-Acryloylpiperidin-3-yl)-4-oxo-5-(6-phenoxypyridin-2-yl)-4,5-dihydro-3H-1-thia-3,5,8-triazaacenaphthylene-2-carboxamide] | 
26 | 5.7 | O=C(N[C@@H]1CCCNC1)c1sc2nccc3c2c1NC(=O)N3c1ccc2c(c1)OC(F)(F)O2 [Example 636, (R)-5-(2,2-Difluorobenzo[d][1,3]dioxol-5-yl)-4-oxo-N-(piperidin-3-yl)-4,5-dihydro-3H-1-thia-3,5,8-triazaacenaphthylene-2-carboxamide] | 
27 | 5.7 | CC(C)Oc1cccc(N2C(=O)Nc3c(C(=O)N[C@@H]4CCCNC4)sc4nccc2c34)c1 [Example 637, (R)-5-(3-Isopropoxyphenyl)-4-oxo-N-(piperidin-3-yl)-4,5-dihydro-3H-1-thia-3,5,8-triazaacenaphthlene-2-carboxamide] | 

Row | SMILES | BTK_I_binding pIC50 | IC50 [µM]
28 | O=C(N[C@@H]1CCCNC1)c1sc2nccc3c2c1NC(=O)N3c1cccc(OC2CCC2)c1 [Example 621, (R)-5-(3-Cyclobutoxyphenyl)-4-oxo-N-(piperidin-3-yl)-4,5-dihydro-3H-1-thia-3,5,8-triazaacenaphthylene-2-carboxamide] | <6 | 
